Test results as given in publication PMC9054821, “Molecular basis of antibiotic self-resistance in a bee larvae pathogen” (Nature Communications, 2022).

Biological target: T1, PamZ (Paenibacillus larvae, UniProt V9W634)
T1 construct: gene ERIC2_c18030; full length, 275 residues; pET28a(+) N-terminal His6-tag with TEV site, tag cut; E. coli BL21-Gold(DE3); monomer
Experiment: X-ray crystal structure
Assay type: binding
Conditions: 1.34 Å; co-substrate bound to the C-terminal GNAT domain only; crystals at pH 4.6, 293 K

T1 sequence (V9W634 entry or part of it): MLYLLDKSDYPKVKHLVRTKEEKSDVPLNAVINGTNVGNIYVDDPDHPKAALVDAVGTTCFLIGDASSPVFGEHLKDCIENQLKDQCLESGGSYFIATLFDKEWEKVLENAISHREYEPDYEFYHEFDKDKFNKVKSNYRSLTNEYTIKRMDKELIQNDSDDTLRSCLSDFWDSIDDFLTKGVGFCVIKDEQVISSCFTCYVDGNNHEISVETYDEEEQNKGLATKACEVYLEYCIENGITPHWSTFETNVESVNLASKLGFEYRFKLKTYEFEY

**Q.** Which X-ray crystal structure does the source give for `CC(=O)SCCNC(=O)CCNC(=O)[C@H](O)C(C)(C)COP(=O)(O)OP(=O)(O)OC[C@H]1O[C@@H](n2cnc3c(N)ncnc32)[C@H](O)[C@@H]1OP(=O)(O)O` [acetyl-CoA] here?
**A.** Its X-ray crystal structure is “We solved the crystal structure of PamZ in complex with acetyl-CoA”.
